Test results: ChEMBL document CHEMBL4765384, “Development of a metabolically stable topoisomerase I poison as anticancer agent” (Eur J Med Chem, 2020)
Converted amounts (≈) assume the structure as drawn.

Columns and labels:
[1] = Half life in human liver microsomes by LC-MS/MS analysis; format: ADME, Microsome
[2] = Stability in human liver microsomes assessed as parent compound remaining after 60 mins by LC-MS/MS analysis; format: ADME, Microsome; details: read-out: Stabilty
[3] = Intrinsic clearance in human liver microsomes after 60 mins in presence of cofactor by LC-MS/MS analysis; format: ADME, Microsome; details: 1 h
[4] = Stability in human liver microsomes assessed as parent compound remaining after 60 mins in presence of cofactor by LC-MS/MS analysis; format: ADME, Microsome; details: read-out: Stabilty
DNA topoisomerase 1 [5] = target: T1, DNA topoisomerase 1 (Homo sapiens, UniProt P11387); test: Inhibition of recombinant human Top1 expressed in baculovirus infected sf9 insect cells using supercoiled pBS (SK+) DNA as substrate incubated for 30 mins by ethidium bromide staining based agarose gel electrophoresis analysis
T1 sequence (P11387 whole entry): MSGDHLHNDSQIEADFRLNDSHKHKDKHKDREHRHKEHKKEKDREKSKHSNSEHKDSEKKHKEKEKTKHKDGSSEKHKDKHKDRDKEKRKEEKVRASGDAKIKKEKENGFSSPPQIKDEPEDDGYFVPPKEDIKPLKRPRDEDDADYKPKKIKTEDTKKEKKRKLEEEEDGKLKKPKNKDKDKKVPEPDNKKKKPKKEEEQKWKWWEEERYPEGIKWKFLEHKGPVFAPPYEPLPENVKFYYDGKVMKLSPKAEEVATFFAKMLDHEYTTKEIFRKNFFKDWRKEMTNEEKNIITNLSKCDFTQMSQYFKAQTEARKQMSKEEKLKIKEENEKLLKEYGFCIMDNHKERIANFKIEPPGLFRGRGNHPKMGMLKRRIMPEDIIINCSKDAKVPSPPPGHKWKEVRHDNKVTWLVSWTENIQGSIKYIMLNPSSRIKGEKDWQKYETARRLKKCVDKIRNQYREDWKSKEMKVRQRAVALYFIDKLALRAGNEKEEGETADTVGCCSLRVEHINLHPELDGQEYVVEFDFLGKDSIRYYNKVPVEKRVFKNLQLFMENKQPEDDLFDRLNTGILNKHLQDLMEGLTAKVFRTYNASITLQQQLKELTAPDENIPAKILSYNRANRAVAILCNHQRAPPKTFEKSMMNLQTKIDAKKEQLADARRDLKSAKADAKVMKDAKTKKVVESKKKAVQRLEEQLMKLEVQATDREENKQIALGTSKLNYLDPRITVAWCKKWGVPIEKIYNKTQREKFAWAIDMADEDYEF

[6] = Stability in human plasma assessed as parent compound remaining after 2 hrs; format: ADME, cell-free; details: read-out: Stabilty
MCF7 = test: Cytotoxicity against human MCF7 cells assessed as reduction in cell viability after 48 hr by MTT assay; format: functional, cell-based; details: MCF7, 48 h
HEK293 = test: Cytotoxicity against HEK293 cells assessed as reduction in cell viability after 48 hr by MTT assay; format: cell-based; details: Homo sapiens, HEK293, 48 h
DNA topoisomerase 1 [7] = target: T1, DNA topoisomerase 1; test: Inhibition of Top1 in human MCF7 cells using supercoiled pBS (SK+) DNA as substrate incubated for 30 mins by ethidium bromide staining based agarose gel electrophoresis analysis; format: cell-based
[8] = Lipophilicity, logD of the compound at pH 7.4; format: physicochemical; details: buffer
[9] = Aqueous solubility of compound; format: physicochemical

Structure (SMILES)	half-life [1] [min]	remaining at 1 h [2] [%]	CLH [3] [µL/min/mg]	remaining at 1 h [4] [%]	IC50 (DNA topoisomerase 1 [5]) [µM]	remaining at 2 h [6] [%]	IC50 (HEK293) [µM]	further results
COc1ccc(-c2ccc3ncc(-c4nnco4)c(NCCCn4ccnc4)c3c2)cc1	9.94	1.68	69.7	112	–	–	–	–
COc1ccc(-c2ccc3ncc(-c4nnco4)c(NCCCn4cccc4)c3c2)cc1	–	–	–	–	> 10	–	–	–
Nc1ccc(-c2ccc3ncc(-c4nnco4)c(NCCCn4ccnc4)c3c2)cc1	69.1	53.7	10	93.8	–	91.3	> 10	IC50 (MCF7): 2.5 µM; IC50 (DNA topoisomerase 1 [7]): 2.5 µM
COc1ccc(-c2ccc3ncc(-c4nnco4)c(NCCCN4CCCC4)c3c2)cc1	–	–	–	–	> 10	–	–	–
Cc1ccc(-c2ccc3ncc(-c4nnco4)c(NCCCn4ccnc4)c3c2)cc1	7.77	0	89.3	93	–	90.8	–	logD [8]: > 3.5; solubility [9]: 0.3 µg/mL (≈ 0.731 µM)
CC[C@@]1(O)C(=O)OCc2c1cc1n(c2=O)Cc2cc3ccccc3nc2-1 [CAMPTOTHECIN]	–	–	–	–	–	–	8.75	–
